Values of other authors as cited in patent US20100284984A1, “ADENOSINE AND ITS MIMETICS. MODULATORS, TRANSPORT INHIBITORS, AND RECEPTOR AGONISTS AS A THERAPEUTIC TOOL TO REPLACE OR IMPROVE THE EFFICACY OF DEEP BRAIN STIMULATION” (University of Rochester, priority 2007, published 2010).

Experiments:
Ecto-ATPase [1] = details: Chen et al.; cited from earlier work
Ecto-ATPase [2] = details: Yegutkin et al., rat liver plasma membranes; cited from earlier work
Ecto-ATPase [3] = details: range over Crack et al.; Dowd et al.; Stout et al.; cited from earlier work

For Cc1ccc(C(=O)Nc2ccc(S(=O)(=O)O)c3cc(S(=O)(=O)O)cc(S(=O)(=O)O)c23)cc1NC(=O)c1cccc(NC(=O)Nc2cccc(C(=O)Nc3cc(C(=O)Nc4ccc(S(=O)(=O)O)c5cc(S(=O)(=O)O)cc(S(=O)(=O)O)c45)ccc3C)c2)c1 [suramin], the Ki (Ecto-ATPase [1]) is listed as 44 µM, the “pIC 50” value (Ecto-ATPase [2]) is listed as 4.57 and the IC50 (Ecto-ATPase [3]) is listed as 46 to 114 µM.
